Read-outs that look alike come from different tables or passages of the source.

In assay [1] the target is T1, KDR (baculovirus expressed human KDR kinase domain D807-V1356) (Homo sapiens, UniProt P35968).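 Also: Luciferase-coupled chemiluminescent kinase assay, activity read as percent ATP left after 4 h reaction at ambient temperature, ATP near KM, 10-point dose-response in 384-well plates.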
T1 construct: human KDR kinase domain D807-V1356; host or cells: baculovirus expression
In words: biochemical.
Description: Kinase activity and compound inhibition are investigated using one or more of the three assay formats described below. The ATP concentrations for each assay are selected to be close to the Michaelis-Menten constant (KM) for each individual kinase. Dose-response experiments are performed at 10 different inhibitor concentrations in a 384-well plate format.
KDR biochemical activity was assessed using a Luciferase-Coupled Chemiluminescent Kinase assay (LCCA) format. Kinase activity was measured as the percent ATP remaining following the kinase reaction. Remaining ATP was detected by luciferase-luciferin-coupled chemiluminescence. […] The mixture is incubated at ambient temperature for 4 hours after which 20 uL luciferase-luciferin mix is added and the chemiluminescent signal read using a Wallac Victor^2 reader.

The target of assay [2] is T2, c-Met (baculovirus expressed human c-Met kinase domain P948-S1343) (Homo sapiens, UniProt P08581).
T2 construct: human c-Met kinase domain P948-S1343; host or cells: baculovirus expression
Description: c-Met Luciferase-Coupled Chemiluminescent Kinase assay (LCCA).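 Also: kinase activity read as percent ATP left after reaction, by luciferase-luciferin chemiluminescence, with 1 µM ATP and 1 µM poly-EY substrate, 2 h at ambient temperature, 10-point dose-response.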 The class given is biochemical.

Assay [3] has as its target T3, Flt-3 (baculovirus expressed human Flt-3 kinase domain R571-S993) (Homo sapiens, UniProt P36888).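 Also: Luciferase-coupled chemiluminescent kinase assay, activity read as percent ATP left after a 3 h reaction at room temperature, ATP near KM, 10-point dose-response.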
T3 construct: human Flt-3 kinase domain R571-S993; host or cells: baculovirus expression
T3 sequence (P36888 571-993): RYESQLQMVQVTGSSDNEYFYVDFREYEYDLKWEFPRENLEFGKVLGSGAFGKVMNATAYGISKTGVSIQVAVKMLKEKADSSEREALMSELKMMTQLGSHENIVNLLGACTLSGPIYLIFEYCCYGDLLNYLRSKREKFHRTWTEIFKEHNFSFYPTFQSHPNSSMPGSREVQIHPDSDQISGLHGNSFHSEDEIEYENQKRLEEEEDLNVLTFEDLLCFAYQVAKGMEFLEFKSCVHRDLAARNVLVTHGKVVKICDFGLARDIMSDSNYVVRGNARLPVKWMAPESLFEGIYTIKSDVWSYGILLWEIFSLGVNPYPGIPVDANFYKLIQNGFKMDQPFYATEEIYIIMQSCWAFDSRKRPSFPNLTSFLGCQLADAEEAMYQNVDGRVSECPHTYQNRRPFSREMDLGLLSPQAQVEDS
In words: biochemical. The following applies: read-out: flt3 IC50.

Setting [4] is: Table 4, inhibition as IC50 class.

T2 sequence (P08581 1011-1343 limits assumed): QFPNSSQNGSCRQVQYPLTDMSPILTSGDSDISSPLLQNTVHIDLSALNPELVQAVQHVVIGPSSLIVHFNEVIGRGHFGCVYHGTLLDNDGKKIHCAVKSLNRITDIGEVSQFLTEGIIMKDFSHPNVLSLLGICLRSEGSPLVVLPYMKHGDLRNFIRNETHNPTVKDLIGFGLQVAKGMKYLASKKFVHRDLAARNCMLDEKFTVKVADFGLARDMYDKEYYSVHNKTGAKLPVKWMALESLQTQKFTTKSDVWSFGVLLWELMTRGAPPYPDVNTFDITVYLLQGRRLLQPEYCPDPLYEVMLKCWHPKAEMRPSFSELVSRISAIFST
T1 sequence (P35968 807-1356): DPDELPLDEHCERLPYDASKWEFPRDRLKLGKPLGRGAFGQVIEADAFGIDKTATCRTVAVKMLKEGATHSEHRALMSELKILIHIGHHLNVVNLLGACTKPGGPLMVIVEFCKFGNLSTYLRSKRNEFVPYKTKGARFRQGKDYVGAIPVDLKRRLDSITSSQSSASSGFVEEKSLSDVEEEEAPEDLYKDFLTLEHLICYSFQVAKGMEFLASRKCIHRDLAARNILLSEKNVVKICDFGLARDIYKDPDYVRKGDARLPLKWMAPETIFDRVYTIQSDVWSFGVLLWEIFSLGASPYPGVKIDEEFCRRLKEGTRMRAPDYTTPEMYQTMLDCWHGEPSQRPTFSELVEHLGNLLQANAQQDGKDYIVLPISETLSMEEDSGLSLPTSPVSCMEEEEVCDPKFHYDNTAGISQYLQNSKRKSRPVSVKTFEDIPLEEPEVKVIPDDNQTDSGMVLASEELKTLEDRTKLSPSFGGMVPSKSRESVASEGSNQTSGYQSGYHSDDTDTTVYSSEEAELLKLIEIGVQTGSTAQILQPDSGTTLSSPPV

As for `COc1cc2nccc(Oc3ccc(NC(=O)C4(C(=O)Nc5ccccc5)CC4)cc3)c2cc1OC` [Example 398, N-(4-{[6,7-bis(methyloxy)quinolin-4-yl]oxy}phenyl)-N′-phenylcyclopropane-1,1-dicarboxamide], the IC50 in assay [1], in assay [2] and in assay [3] was less than 50 nM throughout.
Turning to `COc1cc2c(Oc3ccc(NC(=O)[C@@]4(C(=O)Nc5ccc(F)cc5)[C@H](C)[C@@H]4C)cc3F)ccnc2cc1OCCCN1CCOCC1` [Example 365, (1r,2R,3S)-N-[3-fluoro-4-({6-(methyloxy)-7-[(3-morpholin-4-ylpropyl)oxy]quinolin-4-yl}oxy)phenyl]-N′-(4-fluorophenyl)-2,3-dimethylcyclopropane-1,1-dicarboxamide], the half-inhibitory concentration (IC50) was 50 to 500 nM in assay [1], less than 50 nM in assay [2] and 50 to 500 nM in assay [3].
Take `CCN(CC)CCOc1cc2ncnc(Oc3ccc(NC(=O)C4(C(=O)Nc5ccc(F)cc5)[C@H](C)[C@H]4C)cc3F)c2cc1OC` (stereo partly drawn) [Example 388, (2R,3R)-N-(4-{[7-{[2-(diethylamino)ethyl]oxy}-6-(methyloxy)quinazolin-4-yl]oxy}-3-fluorophenyl)-N′-(4-fluorophenyl)-2,3-dimethylcyclopropane-1,1-dicarboxamide]: the half-maximal inhibitory concentration (IC50) in assay [1] was less than 50 nM; in assay [2] it was 50 to 500 nM; in assay [3], 500 to 5000 nM.
Take `COc1cc2nccc(Oc3ccc(NC(=O)C4(C(=O)Nc5ccc(F)cc5)CNC4)cc3)c2cc1OC` [Example 353, N-(4-{[6,7-bis(methyloxy)quinolin-4-yl]oxy}phenyl)-N′-(4-fluorophenyl)azetidine-3,3-dicarboxamide]: the half-maximal inhibitory concentration (IC50) in assay [1] was 500 to 5000 nM; in assay [2], 50 to 500 nM; in assay [3], 500 to 5000 nM.
With `COc1cc2nccc(Oc3ccc(NC(=O)C4(C(=O)NCCN5CCOCC5)CC4)cc3)c2cc1OC` [Example 393, N-(4-{[6,7-bis(methyloxy)quinolin-4-yl]oxy}phenyl)-N′-(2-morpholin-4-ylethyl)cyclopropane-1,1-dicarboxamide], the IC50 is more than 5000 nM in assay [1], 500 to 5000 nM in assay [2] and 50 to 500 nM in assay [3].
As for `COc1cc2c(Oc3ccc(NC(=O)[C@]4(C(=O)Nc5ccc(F)cc5)C[C@@H]4C)cc3F)ccnc2cc1OCCCN1CCNCC1` [Example 364, (1R,2S)-N-[3-fluoro-4-({6-(methyloxy)-7-[(3-piperazin-1-ylpropyl)oxy]quinolin-4-yl}oxy)phenyl]-N′-(4-fluorophenyl)-2-methylcyclopropane-1,1-dicarboxamide], the IC50 in assay [1], in assay [2] and in assay [3] was less than 50 nM in each case.
Regarding `CCN(CC)CCCOc1cc2nccc(Oc3ccc(NC(=O)[C@@]4(C(=O)Nc5ccc(F)cc5)[C@H](C)[C@@H]4C)cc3F)c2cc1OC` [Example 374, (1r,2R,3S)-N-(4-{[7-{[3-(diethylamino)propyl]oxy}-6-(methyloxy)quinolin-4-yl]oxy}-3-fluorophenyl)-N′-(4-fluorophenyl)-2,3-dimethylcyclopropane-1,1-dicarboxamide], the values for the IC50 in assay [1], in assay [2] and in assay [3] were 50 to 500 nM, less than 50 nM and 50 to 500 nM, respectively.
On to `COc1cc2c(Oc3ccc(NC(=O)[C@]4(C(=O)Nc5ccc(F)cc5)C[C@H]4C)cc3F)ncnc2cc1OCCCN1CCN(C)CC1` [Example 387, (1R,2R)-N-{3-fluoro-4-[(6-(methyloxy)-7-{[3-(4-methylpiperazin-1-yl)propyl]oxy}quinazolin-4-yl)oxy]phenyl}-N′-(4-fluorophenyl)-2-methylcyclopropane-1,1-dicarboxamide], for which the IC50 in assay [1], in assay [2] and in assay [3] was less than 50 nM each time.
`COc1cc2c(Oc3ccc(NC(=O)[C@]4(C(=O)Nc5ccc(F)cc5)C[C@H]4C)cc3F)ccnc2cc1OCCCN1CCNCC1` [Example 356, (1R,2R)-N-[3-fluoro-4-({6-(methyloxy)-7-[(3-piperazin-1-ylpropyl)oxy]quinolin-4-yl}oxy)phenyl]-N′-(4-fluorophenyl)-2-methylcyclopropane-1,1-dicarboxamide]: the half-inhibitory concentration (IC50) in assay [1], in assay [2] and in assay [3] was less than 50 nM in each case.
For the compound `CCN(CC)CCCOc1cc2c(Oc3ccc(NC(=O)C4(C(=O)Nc5ccc(F)cc5)CC4)cc3F)ccnc2cc1OC` [Example 344, N-(4-{[6-{[3-(diethylamino)propyl]oxy}-7-(methyloxy)quinolin-4-yl]oxy}-3-fluorophenyl)-N′-(4-fluorophenyl)cyclopropane-1,1-dicarboxamide], the IC50 in assay [1], in assay [2] and in assay [3] was less than 50 nM in each case.
Consider `COc1cc2nccc(Oc3ccc(NC(=O)C4(C(=O)Nc5ccccc5CN5CCCC5)CC4)cc3)c2cc1OC` [Example 395, N-(4-{[6,7-bis(methyloxy)quinolin-4-yl]oxy}phenyl)-N′-[2-(pyrrolidin-1-ylmethyl)phenyl]cyclopropane-1,1-dicarboxamide], for which the results for the half-maximal inhibitory concentration (IC50) in assay [1], in assay [2] and in assay [3] were 500 to 5000 nM, 50 to 500 nM and 50 to 500 nM, respectively.
Regarding `COc1cc(CNC(=O)C(=O)Nc2ccc(Oc3ccnc4cc(OCC5CCNCC5)c(OC)cc34)c(F)c2)cc(OC)c1` [Example 269, N-{[3,5-bis(methyloxy)phenyl]methyl}-N′-[3-fluoro-4-({6-(methyloxy)-7-[(piperidin-4-ylmethyl)oxy]quinolin-4-yl}oxy)phenyl]ethanediamide], the IC50 in assay [1] (setting [4]), in assay [2] (setting [4]) and in assay [3] (setting [4]) was less than 50 nM each time.
Consider `COc1cc2c(Oc3ccc(NC(=O)C4(C(=O)Nc5ccc(F)cc5)CCC4)cc3F)ccnc2cc1OCCCN1CCN(C)CC1` [Example 385, N-{3-fluoro-4-[(6-(methyloxy)-7-{[3-(4-methylpiperazin-1-yl)propyl]oxy}quinolin-4-yl)oxy]phenyl}-N′-(4-fluorophenyl)cyclobutane-1,1-dicarboxamide], for which the 50% inhibitory concentration (IC50) in assay [1] is less than 50 nM; in assay [2] it was less than 50 nM; in assay [3], 500 to 5000 nM.
Turning to `COc1cc2c(Oc3ccc(NC(=O)C4(C(=O)Nc5ccc(F)cc5)CC4)cc3F)ccnc2cc1OCCCN1CCN(C(=O)OC(C)(C)C)CC1` [Example 346, 1,1-dimethylethyl 4-(3-{[4-[(2-fluoro-4-{[(1-{[(4-fluorophenyl)amino]carbonyl}cyclopropyl)carbonyl]amino}phenyl)oxy]-6-(methyloxy)quinolin-7-yl]oxy}propyl)piperazine-1-carboxylate], the IC50 was less than 50 nM in assay [1], less than 50 nM in assay [2] and 50 to 500 nM in assay [3].
As to `COc1cc2nccc(Oc3ccc(NC(=O)C4(C(=O)Nc5cccc(CN)c5)CC4)cc3)c2cc1OC` [Example 399, N-[3-(aminomethyl)phenyl]-N′-(4-{[6,7-bis(methyloxy)quinolin-4-yl]oxy}phenyl)cyclopropane-1,1-dicarboxamide], the 50% inhibitory concentration (IC50) in assay [1] is less than 50 nM; in assay [2], 50 to 500 nM; in assay [3], 50 to 500 nM.
With `CCN(CC)CCCOc1cc2ncnc(Oc3ccc(NC(=O)C4(C(=O)Nc5ccc(F)cc5)CC4(C)C)cc3F)c2cc1OC` (stereo not drawn) [Example 379, N-(4-{[7-{[3-(diethylamino)propyl]oxy}-6-(methyloxy)quinazolin-4-yl]oxy}-3-fluorophenyl)-N′-(4-fluorophenyl)-2,2-dimethylcyclopropane-1,1-dicarboxamide], the IC50 is less than 50 nM in assay [1], less than 50 nM in assay [2] and 500 to 5000 nM in assay [3].
As to `COc1cc2c(Oc3ccc(NC(=O)[C@@]4(C(=O)Nc5ccc(F)cc5)[C@H](C)[C@@H]4C)cc3F)ncnc2cc1OCCCN1CCN(C)CC1` [Example 368, (1r,2R,3S)-N-{3-fluoro-4-[(6-(methyloxy)-7-{[3-(4-methylpiperazin-1-yl)propyl]oxy}quinazolin-4-yl)oxy]phenyl}-N′-(4-fluorophenyl)-2,3-dimethylcyclopropane-1,1-dicarboxamide], the results for the IC50 in assay [1], in assay [2] and in assay [3] were less than 50 nM, less than 50 nM and 50 to 500 nM, respectively.
With `COc1cc2nccc(Oc3ccc(NC(=O)C4(C(=O)Nc5ccc(F)cc5)CN(Cc5ccccc5)C4)cc3)c2cc1OC` [Example 352, N-(4-{[6,7-bis(methyloxy)quinolin-4-yl]oxy}phenyl)-N′-(4-fluorophenyl)-1-(phenylmethyl)azetidine-3,3-dicarboxamide], the IC50 in assay [1] was 500 to 5000 nM; in assay [2] it was less than 50 nM; in assay [3], 500 to 5000 nM.
Regarding `CCN(CC)CCCOc1cc2nccc(Oc3ccc(NC(=O)C4(C(=O)Nc5ccc(F)cc5)CC4(C)C)cc3F)c2cc1OC` (stereo not drawn) [Example 372, N-(4-{[7-{[3-(diethylamino)propyl]oxy}-6-(methyloxy)quinolin-4-yl]oxy}-3-fluorophenyl)-N′-(4-fluorophenyl)-2,2-dimethylcyclopropane-1,1-dicarboxamide], the IC50 in assay [1] is less than 50 nM; in assay [2] it was less than 50 nM; in assay [3], 50 to 500 nM.

As usually defined, the IC50 is the concentration at which inhibition is half-maximal.
